Measurements reported in PubChem BioAssay (NCI).
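In this assay, cells in 96-well plates receive the compound at five concentrations for 48 hours. Endpoints are linearly interpolated between the surrounding concentrations. GI50 = concentration required for 50% inhibition of growth. The concentration for full growth arrest is given as TGI.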

How the values were obtained:
Test in all cases: growth of human tumour cells (NCI), 48 h
RPMI-8226 leukemia = test system: RPMI-8226 leukemia
ACHN renal = test system: ACHN renal
UACC-257 melanoma = test system: UACC-257 melanoma
MDA-MB-435 = test system: MDA-MB-435
NCI/ADR-RES ovarian = test system: NCI/ADR-RES ovarian
HCT-116 colon = test system: HCT-116 colon
IGROV1 ovarian = test system: IGROV1 ovarian
CAKI-1 renal = test system: CAKI-1 renal
SW-620 colon = test system: SW-620 colon
SK-OV-3 ovarian = test system: SK-OV-3 ovarian
NCI-H460 lung = test system: NCI-H460 lung
KM12 colon = test system: KM12 colon
HOP-92 NSCLC = test system: HOP-92 NSCLC
LOX IMVI melanoma = test system: LOX IMVI melanoma
HCT-15 colon = test system: HCT-15 colon
SF-268 CNS = test system: SF-268 CNS
SK-MEL-5 melanoma = test system: SK-MEL-5 melanoma
EKVX NSCLC = test system: EKVX NSCLC
A498 renal = test system: A498 renal
SN12C renal = test system: SN12C renal
MDA-MB-231 breast = test system: MDA-MB-231 breast
SF-539 CNS = test system: SF-539 CNS
786-0 renal = test system: 786-0 renal
OVCAR-8 ovarian = test system: OVCAR-8 ovarian
OVCAR-4 ovarian = test system: OVCAR-4 ovarian
CCRF-CEM leukemia = test system: CCRF-CEM leukemia
SK-MEL-2 melanoma = test system: SK-MEL-2 melanoma
DU-145 prostate = test system: DU-145 prostate
U251 CNS = test system: U251 CNS
MALME-3M melanoma = test system: MALME-3M melanoma
SNB-75 CNS = test system: SNB-75 CNS
HOP-62 NSCLC = test system: HOP-62 NSCLC
K-562 leukemia = test system: K-562 leukemia
HL-60(TB) leukemia = test system: HL-60(TB) leukemia
SF-295 CNS = test system: SF-295 CNS
MDA-MB-468 breast = test system: MDA-MB-468 breast
OVCAR-3 ovarian = test system: OVCAR-3 ovarian
NCI-H522 lung = test system: NCI-H522 lung
TK-10 renal = test system: TK-10 renal
MCF7 breast = test system: MCF7 breast
HCC-2998 colon = test system: HCC-2998 colon
A549 NSCLC = test system: A549 NSCLC
SK-MEL-28 melanoma = test system: SK-MEL-28 melanoma
UO-31 renal = test system: UO-31 renal
BT-549 breast = test system: BT-549 breast
OVCAR-5 ovarian = test system: OVCAR-5 ovarian
MOLT-4 leukemia = test system: MOLT-4 leukemia
T-47D breast = test system: T-47D breast
NCI-H23 lung = test system: NCI-H23 lung
SR leukemia = test system: SR leukemia
HT29 colon = test system: HT29 colon
UACC-62 melanoma = test system: UACC-62 melanoma
M14 melanoma = test system: M14 melanoma
HS 578T breast = test system: HS 578T breast
NCI-H226 lung = test system: NCI-H226 lung
COLO 205 colon = test system: COLO 205 colon
SNB-19 CNS = test system: SNB-19 CNS
RXF 393 renal = test system: RXF 393 renal
PC-3 prostate = test system: PC-3 prostate

## O=C1CCC(N2Cc3c(C#CCCCNC(=O)c4ccc(NC(=O)[C@@H]5NC6(CCCCC6)[C@@]6(C(=O)Nc7cc(Cl)ccc76)[C@H]5c5cccc(Cl)c5F)cc4)cccc3C2=O)C(=O)N1 (stereo partly specified)
RPMI-8226 leukemia
  GI50: 4.16 µM
  TGI: > 100 µM
ACHN renal
  GI50: 3.86 µM
  TGI: > 100 µM
UACC-257 melanoma
  GI50: 9.03 µM
  TGI: > 100 µM
MDA-MB-435
  GI50: 31.8 µM
  TGI: > 100 µM
NCI/ADR-RES ovarian
  GI50: > 100 µM
  TGI: > 100 µM
HCT-116 colon
  GI50: 2.45 µM
  TGI: > 100 µM
IGROV1 ovarian
  GI50: 1.76 µM
  TGI: > 44 µM
CAKI-1 renal
  GI50: 1.2 µM
  TGI: > 100 µM
SW-620 colon
  GI50: > 100 µM
  TGI: > 100 µM
SK-OV-3 ovarian
  GI50: > 95.6 µM
  TGI: > 100 µM
NCI-H460 lung
  GI50: 2.09 µM
  TGI: > 100 µM
KM12 colon
  GI50: 9.18 µM
  TGI: > 100 µM
HOP-92 NSCLC
  GI50: 5.27 µM
  TGI: > 100 µM
LOX IMVI melanoma
  GI50: 0.953 µM
  TGI: > 100 µM
HCT-15 colon
  GI50: 7.72 µM
  TGI: > 100 µM
SF-268 CNS
  GI50: 26 µM
  TGI: > 100 µM
SK-MEL-5 melanoma
  GI50: 2.33 µM
  TGI: > 40.2 µM
EKVX NSCLC
  GI50: 8.32 µM
  TGI: > 100 µM
A498 renal
  GI50: 25.7 µM
  TGI: > 100 µM
SN12C renal
  GI50: > 78.2 µM
  TGI: > 100 µM
MDA-MB-231 breast
  GI50: 15.4 µM
  TGI: > 100 µM
SF-539 CNS
  GI50: 12.9 µM
  TGI: > 100 µM
786-0 renal
  GI50: 35.2 µM
  TGI: > 100 µM
OVCAR-8 ovarian
  GI50: > 100 µM
  TGI: > 100 µM
OVCAR-4 ovarian
  GI50: 7.28 µM
  TGI: 97.5 µM
CCRF-CEM leukemia
  GI50: 11.6 µM
  TGI: > 100 µM
SK-MEL-2 melanoma
  GI50: > 100 µM
  TGI: > 100 µM
DU-145 prostate
  GI50: > 100 µM
  TGI: > 100 µM
U251 CNS
  GI50: 9.5 µM
  TGI: > 100 µM
MALME-3M melanoma
  GI50: 0.159 µM
  TGI: 20 µM
SNB-75 CNS
  GI50: 2.5 µM
  TGI: > 72.1 µM
HOP-62 NSCLC
  GI50: > 100 µM
  TGI: > 100 µM
K-562 leukemia
  GI50: 65 µM
  TGI: > 100 µM
HL-60(TB) leukemia
  GI50: 6.77 µM
  TGI: > 100 µM
SF-295 CNS
  GI50: 10.8 µM
  TGI: > 100 µM
MDA-MB-468 breast
  GI50: 4.38 µM
  TGI: > 35.7 µM
OVCAR-3 ovarian
  GI50: 15.8 µM
  TGI: > 100 µM
NCI-H522 lung
  GI50: > 89.9 µM
  TGI: > 100 µM
TK-10 renal
  GI50: > 75.9 µM
  TGI: > 100 µM
MCF7 breast
  TGI: > 49.8 µM
HCC-2998 colon
  GI50: 9.57 µM
  TGI: > 100 µM
A549 NSCLC
  GI50: 1.04 µM
  TGI: > 100 µM
SK-MEL-28 melanoma
  GI50: 96.8 µM
  TGI: > 100 µM
UO-31 renal
  GI50: 3.04 µM
  TGI: > 100 µM
BT-549 breast
  GI50: 13.1 µM
  TGI: > 100 µM
OVCAR-5 ovarian
  GI50: > 53.2 µM
  TGI: > 100 µM
MOLT-4 leukemia
  TGI: 1.43 µM
T-47D breast
  GI50: 6.68 µM
  TGI: > 100 µM
NCI-H23 lung
  GI50: > 88 µM
  TGI: > 100 µM
SR leukemia
  GI50: 0.25 µM
  TGI: 3.11 µM
HT29 colon
  GI50: 25.2 µM
  TGI: > 100 µM
UACC-62 melanoma
  GI50: 0.445 µM
  TGI: > 100 µM
M14 melanoma
  GI50: 75 µM
  TGI: > 100 µM
HS 578T breast
  GI50: 4.3 µM
  TGI: > 100 µM
NCI-H226 lung
  GI50: 0.2 µM
  TGI: > 74.5 µM
COLO 205 colon
  GI50: 72 µM
  TGI: > 100 µM
SNB-19 CNS
  GI50: > 50.1 µM
  TGI: > 100 µM
RXF 393 renal
  GI50: 5.81 µM
  TGI: > 79 µM
PC-3 prostate
  GI50: 7.52 µM
  TGI: > 100 µM
